Data reported in patent US20110182954A1, “ORALLY-ADMINISTERED AGENT” (LINTEC Corporation, priority 2008, published 2011).

Test: Viscosity of aqueous solution of constituent material (E-type viscometer)
Type: physicochemical
Settings: for Water absorption promoter, Viscosity: aqueous solution of 5 mass % at 37° C., Examples 1-3, 7, 10-12 glycerin, other Examples the promoter other than glycerin; for Antiadhesive agent, Viscosity: aqueous solution of 5 mass % of the antiadhesive agent at 37° C.
Protocol: Tables 1 and 2 shown the constituent materials of the intestinal collapse-controlling layer, the gel-forming layer and the antiadhesive layer of the orally-administered agents obtained in the respective Examples and the respective Comparative Examples and the contents thereof. […] Furthermore, the viscosity of the water absorption promoter in the Table 1 and the viscosity of the antiadhesive agent in the Table 2 denote a viscosity at 37° C. of an aqueous solution of 5 mass % of the water absorption promoter and the antiadhesive agent, respectively. Each viscosity was measured with an E-type viscometer (a product of Tokimec, Inc.).

Compound	Water absorption promoter, Viscosity [mPa · s]	Antiadhesive agent, Viscosity [mPa · s]
OC[C@@H](O)[C@@H](O)[C@H](O)[C@H](O)CO [Man, mannitol]	0.87	0.87
OC[C@@H](O)[C@H](O)[C@@H](O)CO [Xyl, xylitol]	1.08	0.87
